In brackets after ≈: the same amount, converted by molar mass. Square brackets hold non-standard residues; d marks the D form. Peptide text beside a SMILES is read from it. * marks the point of attachment. ξ: configuration not given here. Phe(4-NO2) = N[C@@H](Cc1ccc([N+](=O)[O-])cc1)C(=O)O; Pro(3ξ,4ξ-(CH2)4) = O=C(O)[C@H]1NCC2CCCCC21; Tic = O=C(O)[C@@H]1Cc2ccccc2CN1; X5 = CC(=O)NC(=O)[C@H](CCCCN)N*; Dap = NC[C@H](N)C(=O)O; βAla = NCCC(=O)O
Tests used:
Type in all cases: functional
Enterococcus faecium = experiment: Antibacterial activity against Enterococcus faecium MMC4 after 24 hrs by broth microdilution method; conditions: MMC4, 24 h
Klebsiella aerogenes = experiment: Antibacterial activity against Enterobacter aerogenes after 24 hrs by broth microdilution method
Pseudomonas aeruginosa = experiment: Antibacterial activity against Pseudomonas aeruginosa PAO1 after 24 hrs by broth microdilution method; conditions: PAO1, 24 h
Klebsiella pneumoniae = experiment: Antibacterial activity against Klebsiella pneumoniae BAMS clinical isolate 07-18 after 24 hrs by broth microdilution method; conditions: BAMS clinical isolate 07-18, 24 h
Acinetobacter baumannii = experiment: Antibacterial activity against Acinetobacter baumannii WRAIR clinical isolate 13 after 24 hrs by broth microdilution method; conditions: WRAIR clinical isolate 13, 24 h
Staphylococcus aureus = experiment: Antibacterial activity against methicillin-sensitive Staphylococcus aureus UAMS-1 after 24 hrs by broth microdilution method; conditions: UAMS-1, 24 h

Row | MIC (Enterococcus faecium) | MIC (Klebsiella aerogenes) | MIC (Pseudomonas aeruginosa) | MIC (Klebsiella pneumoniae) | MIC (Acinetobacter baumannii) | MIC (Staphylococcus aureus) | SMILES | MBC (Enterococcus faecium) | MBC (Klebsiella aerogenes) | MBC (Pseudomonas aeruginosa) | MBC (Klebsiella pneumoniae) | MBC (Acinetobacter baumannii) | MBC (Staphylococcus aureus)
1 | 25 µg/mL (≈ 9.85 µM) | > 100 µg/mL | > 100 µg/mL | > 100 µg/mL | 12.5 µg/mL (≈ 4.92 µM) | > 100 µg/mL | CC(=O)NCCC(=O)N[C@@H](Cc1ccccc1)C(=O)N1Cc2ccccc2C[C@H]1C(=O)N1CC2CCCCC2[C@H]1C(=O)NCCC(=O)N[C@@H](CCCCN)C(=O)N1Cc2ccccc2C[C@H]1C(=O)N1CC2CCCCC2[C@H]1C(=O)NCCC(=O)N[C@@H](Cc1ccccc1)C(=O)N1Cc2ccccc2C[C@H]1C(=O)N1CC2CCCCC2[C@H]1C(=O)NCCC(=O)N[C@@H](CCCCN)C(=O)N1Cc2ccccc2C[C@H]1C(=O)N[C@@H](CCCCN)C(=O)N[C@@H](CCCCN)C(=O)N[C@@H](CCCCN)C(=O)N[C@@H](CCCCN)C(=O)NC(C)=O (stereo partly drawn) (Ac-[βAla]F[Tic][Pro(3ξ,4ξ-(CH2)4)][βAla]K[Tic][Pro(3ξ,4ξ-(CH2)4)][βAla]F[Tic][Pro(3ξ,4ξ-(CH2)4)][βAla]K[Tic]KKK-X5) | 50 µg/mL (≈ 19.7 µM) | > 100 µg/mL | > 100 µg/mL | > 100 µg/mL | 25 µg/mL (≈ 9.85 µM) | > 100 µg/mL
2 | 25 µg/mL (≈ 9.88 µM) | 100 µg/mL (≈ 39.5 µM) | 50 µg/mL (≈ 19.8 µM) | 50 µg/mL (≈ 19.8 µM) | 12.5 µg/mL (≈ 4.94 µM) | 100 µg/mL (≈ 39.5 µM) | CC(=O)NCC(=O)N[C@@H](Cc1ccc([N+](=O)[O-])cc1)C(=O)N1Cc2ccccc2C[C@H]1C(=O)N1CC2CCCCC2[C@H]1C(=O)NCC(=O)N[C@@H](CCCCN)C(=O)N1Cc2ccccc2C[C@H]1C(=O)N1CC2CCCCC2[C@H]1C(=O)NCC(=O)N[C@@H](Cc1ccc([N+](=O)[O-])cc1)C(=O)N1Cc2ccccc2C[C@H]1C(=O)N1CC2CCCCC2[C@H]1C(=O)NCC(=O)N[C@@H](CCCCN)C(=O)N1Cc2ccccc2C[C@H]1C(=O)N[C@@H](CCCCN)C(=O)N[C@@H](CCCCN)C(=O)N[C@@H](CCCCN)C(=O)N[C@@H](CCCCN)C(N)=O (stereo partly drawn) (Ac-G[Phe(4-NO2)][Tic][Pro(3ξ,4ξ-(CH2)4)]GK[Tic][Pro(3ξ,4ξ-(CH2)4)]G[Phe(4-NO2)][Tic][Pro(3ξ,4ξ-(CH2)4)]GK[Tic]KKKK-NH2) | 50 µg/mL (≈ 19.8 µM) | 100 µg/mL (≈ 39.5 µM) | 100 µg/mL (≈ 39.5 µM) | 50 µg/mL (≈ 19.8 µM) | 12.5 µg/mL (≈ 4.94 µM) | > 100 µg/mL
3 | 6.25 µg/mL (≈ 1.82 µM) | > 100 µg/mL | 50 µg/mL (≈ 14.6 µM) | > 100 µg/mL | 25 µg/mL (≈ 7.3 µM) | 50 µg/mL (≈ 14.6 µM) | CC(C)C[C@H](NC(=O)[C@@H](N)CCCCN)C(=O)N1Cc2ccccc2C[C@H]1C(=O)N1CC2CCCCC2[C@H]1C(=O)N[C@@H](CCCCN)C(=O)N1Cc2ccccc2C[C@H]1C(=O)N1CC2CCCCC2[C@H]1C(=O)NC(=O)CN[C@@H](Cc1ccccc1)C(=O)N1Cc2ccccc2C[C@H]1C(=O)N1CC2CCCCC2[C@H]1C(=O)N[C@@H](CCCCN)C(=O)N1Cc2ccccc2C[C@H]1C(=O)N1CC2CCCCC2[C@H]1C(=O)NC(=O)CN[C@@H](Cc1ccccc1)C(=O)N1Cc2ccccc2C[C@H]1C(=O)N1CC2CCCCC2[C@H]1C(=O)N[C@@H](CCCCN)C(=O)N1Cc2ccccc2C[C@H]1C(=O)N1CC2CCCCC2[C@H]1C(=O)N[C@@H](CCCCN)C(=O)N[C@@H](CCCCN)C(=O)N[C@@H](CCCCN)C(=O)N[C@@H](CCCCN)C(N)=O (stereo partly drawn) | 25 µg/mL (≈ 7.3 µM) | > 100 µg/mL | 50 µg/mL (≈ 14.6 µM) | 100 µg/mL (≈ 29.2 µM) | 100 µg/mL (≈ 29.2 µM) | 50 µg/mL (≈ 14.6 µM)
4 | 12.5 µg/mL (≈ 4.2 µM) | 100 µg/mL (≈ 33.6 µM) | 50 µg/mL (≈ 16.8 µM) | 100 µg/mL (≈ 33.6 µM) | 12.5 µg/mL (≈ 4.2 µM) | 50 µg/mL (≈ 16.8 µM) | CC(C)C[C@H](NC(=O)[C@@H](N)CN)C(=O)N1Cc2ccccc2C[C@H]1C(=O)N1CC2CCCCC2[C@H]1C(=O)N[C@@H](CN)C(=O)N1Cc2ccccc2C[C@H]1C(=O)N1CC2CCCCC2[C@H]1C(=O)N[C@@H](Cc1ccccc1)C(=O)N1Cc2ccccc2C[C@H]1C(=O)N1CC2CCCCC2[C@H]1C(=O)N[C@@H](CN)C(=O)N1Cc2ccccc2C[C@H]1C(=O)N1CC2CCCCC2[C@H]1C(=O)N[C@@H](Cc1ccccc1)C(=O)N1Cc2ccccc2C[C@H]1C(=O)N1CC2CCCCC2[C@H]1C(=O)N[C@@H](CN)C(=O)N1Cc2ccccc2C[C@H]1C(=O)N1CC2CCCCC2[C@H]1C(=O)N[C@@H](CN)C(=O)N[C@@H](CN)C(=O)N[C@@H](CN)C(=O)N[C@@H](CN)C(N)=O (stereo partly drawn) (H-[Dap]L[Tic][Pro(3ξ,4ξ-(CH2)4)][Dap][Tic][Pro(3ξ,4ξ-(CH2)4)]F[Tic][Pro(3ξ,4ξ-(CH2)4)][Dap][Tic][Pro(3ξ,4ξ-(CH2)4)]F[Tic][Pro(3ξ,4ξ-(CH2)4)][Dap][Tic][Pro(3ξ,4ξ-(CH2)4)][Dap][Dap][Dap][Dap]-NH2) | 25 µg/mL (≈ 8.4 µM) | 100 µg/mL (≈ 33.6 µM) | 100 µg/mL (≈ 33.6 µM) | 100 µg/mL (≈ 33.6 µM) | 50 µg/mL (≈ 16.8 µM) | 100 µg/mL (≈ 33.6 µM)

— ChEMBL document CHEMBL2375306, “Antimicrobial peptides containing unnatural amino acid exhibit potent bactericidal activity against ESKAPE pathogens” (Bioorg Med Chem, 2013)
